# Patent publication US20180320128A1, “METHODS FOR MODULATING PRODUCTION PROFILES OF RECOMBINANT PROTEINS” (ARES TRADING S.A., priority 2015, published 2018)
# Legend:
# [1] = system: mAb1 cells (CHO-S cells expressing IgG1 mAb1); assay: Fed-batch culture in 96 deep-well plates, constant osmolality (315 mOsm/kg), increasing sugar concentration (experimental approach 1); format: cell-based, Chinese hamster; details: for increase of High Mannose (HM) species of mAb1 with respect to control: absolute change; for cell growth with increasing sugar concentration: 0-127.5 mM; for increase of HM for mAb1 (overall conclusion): constant osmolality, concentration not given
# Experimental: (§1) Assays were performed with two CHO cell lines: • CHO-S cells expressing IgG1 mAb1, herein “Cells mAb1” or “mAb1 cells”. “mAb1” is a fully human monoclonal antibody directed against a soluble protein. Its isoelectric point (pI) is about 8.20-8.30. • CHO-K1 cells expressing IgG1 mAb2, herein “Cells mAb2” or “mAb2 cells”. “mAb2” is a humanized monoclonal antibody directed against a receptor found on the cell membrane. Its isoelectric point (pI) is about 9.30.
# (§2) Deepwell plates: Cells expressing mAb2 were inoculated at 0.2×10^6 cells per millilitre (mL), whereas cells expressing mAb1 were inoculated at 0.3×10^6 cells per mL.
# (§3) All assays were performed in fed-batch culture.
# (§4) A serum-free chemically defined culture medium was used. It was used as it is (o be adapted), or it was supplemented with D-(+)-Raffinose pentahydrate (Sigma-Aldrich, 83400-25G) at different concentrations (0-45 mM). The culture medium was fed, on a regular basis, with a chemically defined feed medium, as well as with glucose in order to keep said glucose level in the range of >0 to about 8 g/L.
# (§5) The cultures were performed: • In deepwell plates with a working volume of 450 μL. They were incubated at 36.5° C., 5% de CO2, 90% humidity and shaken at 320 rpm. Each of the fed-batch culture lasted 14 days. • In Spin Tubes (ST) with a working volume of 30 mL (with as permable lid). They were inoculated with a cell density of 0.3*10^6 cells/mL and maintained at 36.5° C., 320 rpm, 5% CO2 and 90% humidity for 14 days.
# (§6) Viable cell density and viability were measured with the Guava easyCyte® flow cytometer.
# (§7) Antibody titers were measured with the fortéBIO Octet®.
# (§8) Glycosylation profiles were established by capillary gel electrophoresis with laser-induced fluorescence (CGE-LIF). Groups of glycans were defined as thereafter in Table 2.
# (§9) Experiment was performed to check whether high osmolality or high sugar concentration have an influence on the viability of the cells, VCD as well as on amount of High Mannose (HM) species. A chemically defined proprietary medium with lower osmolality (PM-200) compared to standard media, was used to vary sugar concentrations from 1-150 mM (green) while maintaining the osmolality of standard media (315 mOsm/kg) via supplementation with NaCl (blue), as illustrated in FIG. 1. Standard media and PM-200 differ in the composition, so the missing amounts of raw material were added (except NaCl). As sugars raffinose (a trisaccharide) and sucrose (a disaccharide) were chosen. Stock solutions (raffinose 22 mM, raffinose 220 mM, sucrose 50 mM, sucrose 1 M and NaCl 1 M) were prepared and added to the media before inoculation.
# (§10) Stock solutions were prepared with media to prevent dilution. The given concentrations equal the concentrations in media before incoculation. CHO-S cells (=mAb1 cells) expressing mAb1 were expanded for 49 days, CHO-K1 (=mAb2 cells) expressing mAb2 were expanded for 28 days.
# [2] = system: mAb2 cells (CHO-K1 cells expressing IgG1 mAb2); assay: as above; format: cell-based, Chinese hamster; details: for increase of High Mannose (HM) species of mAb2 with respect to control: absolute change; for increase of HM for mAb2 (overall conclusion): constant osmolality, concentration not given
# Experimental: as §1, §2, §3, §4, §5, §6, §7, §8, §9, §10
# [3] = system: mAb2 cells (CHO-K1 cells expressing IgG1 mAb2); assay: Fed-batch culture in deep-well plates, 0 or 30 mM raffinose with increasing osmolality (experimental approach 2); format: cell-based, Chinese hamster
# Experimental: as §1, §2, §3, §4, §5, §6, §7, §8, §10
# The second experimental approach was performed with increasing osmolality and constant sugar concentrations (see table 3 and methods in example 1).
# [4] = system: mAb1 cells (CHO-S cells expressing IgG1 mAb1); assay: Fed-batch culture in Spin Tubes, constant osmolality (315 mOsm/kg), increasing raffinose concentration; format: cell-based, Chinese hamster
# Experimental: as §1
# Spintubes: Cells expressing both mAb1 and mAb2 were inoculated at 0.3×10^6 cells per mL.
# as §3, §4, §5
# Glycosylation profiles were established by capillary gel electrophoresis with laser-induced fluorescence (CGE-LIF). Groups of glycans were defined as thereafter in Table 2. […]
# A second experiment with constant osmolality (315 mOsm/kg) and increasing raffinose concentration was performed in Spin Tubes with a working volume of 30 mL and mAb1 cells. FIG. 10a depicts VCD and viability from mAb1 cells of the experimental approach with constant osmolality and increasing raffinose concentration in Spin Tubes. […] The lowest VCD was obtained at 100 mM raffinose (10.2±0.2*10^6 cells/mL), as illustrated in FIG. 10b.
# [5] = system: recombinant CHO cells; details: cited from earlier work
# [6] = 1 mM sugar in medium, 315 mOsm/kg, 14-day culture
# [7] = 5 mM sugar, 315 mOsm/kg, working day 14
# [8] = 100 mM sugar, 315 mOsm/kg, working day 14
# [9] = 425 mOsm/kg with 30 mM raffinose
# [10] = 100 mM raffinose, Spin Tubes, absolute change
# [11] = 80 mM sugar, 315 mOsm/kg, working day 14
# [12] = 127.5 mM sugar, 315 mOsm/kg, working day 14
# [13] = 50 mM sugar, 315 mOsm/kg, working day 14
compound,measurement,setting,value
"OC[C@H]1O[C@H](OC[C@H]2O[C@H](O[C@]3(CO)O[C@H](CO)[C@@H](O)[C@@H]3O)[C@H](O)[C@@H](O)[C@@H]2O)[C@H](O)[C@@H](O)[C@H]1O [raffinose, O-α-D-Galactopyranosyl-(1→6)-α-D-g lucopyranosyl-(1→2)-β-D-fructofuranoside]",maximum cell concentration (VCD),[1]; [6],16.2±1.0 *10^6 cells/mL
same,cell viability,[1]; [7],about 57%
same,absolute harvest titer,"[1]; 10 mM sugar, 315 mOsm/kg, working day 14",about 2650 mg/L
same,increase of High Mannose (HM) species of mAb1 with respect to control,"[1]; 50 mM sugar, 315 mOsm/kg",6.8%
same,maximum cell concentration (VCD),"[1]; 100 mM sugar in medium, 315 mOsm/kg",2.3±2.1 *10^6 cells/mL
same,specific productivity,[1]; [8],about 45 pg/cell/day
same,product titer compared to control,"[1]; 1-65 mM sugar, 315 mOsm/kg, working day 14",higher product titer than control
same,absolute harvest titer,"[1]; 80-127.5 mM sugar, 315 mOsm/kg, working day 14",825 to 975 mg/L
same,change of fucosylated species of mAb1 with increasing sugar concentration,[1]; 315 mOsm/kg,decrease
same,"change of galactosylated, HM and non-fucosylated species of mAb1 with increasing sugar concentration",[1]; 315 mOsm/kg,increase
same,cell growth with increasing sugar concentration,[1]; 315 mOsm/kg,inhibited
same,specific productivity with increasing sugar concentration,"[1]; 315 mOsm/kg, working day 14",increased
same,increase of HM for mAb1 (overall conclusion),[1],7%
same,maximum cell concentration (VCD),"[2]; 5 mM sugar, 315 mOsm/kg",11.85±1.1 *10^6 cells/mL
same,maximum VCD (lowest of the conditions),"[2]; 80 mM sugar, 315 mOsm/kg",6.4±1.7 *10^6 cells/mL
same,specific productivity,"[2]; 100 mM sugar, 315 mOsm/kg",about 30 pg/cell/day
same,increase of High Mannose (HM) species of mAb2 with respect to control,"[2]; 100 mM sugar, 315 mOsm/kg",6.3%
same,harvest titer,[2]; [8],about 2350 mg/L
same,cell growth with increasing sugar concentration,[2]; 315 mOsm/kg,reduced
same,change of fucosylated species of mAb2 with higher sugar concentration,[2]; 315 mOsm/kg,decrease
same,"change of galactosylated, HM and non-fucosylated species of mAb2 with higher sugar concentration",[2]; 315 mOsm/kg,increase
same,increase of HM for mAb2 (overall conclusion),[2],6%
same,viability at the end of the experiment,[3]; 375 mOsm/kg and 30 mM raffinose,about 59%
same,absolute harvest titer,"[3]; 425 mOsm/kg and 30 mM raffinose, working day 14",about 1150 mg/L
same,increase of HM species of mAb2 with respect to control (315 mOsm/kg),[3]; [9],8.5%
same,maximum VCD (lowest of the conditions),[3]; [9],8.2±2.3 *10^6 cells/mL
same,maximum cell concentration (VCD),"[4]; 10 mM raffinose, Spin Tubes, n=2",17.8±0.2 *10^6 cells/mL
same,concentration of antibodies (harvest titer),"[4]; 10 mM raffinose, working day 14, Spin Tubes",about 2200 mg/L
same,increase of productivity versus control,"[4]; 100 mM raffinose, Spin Tubes",about 64%
same,"productivity per cell per day (PCD), peak","[4]; 100 mM raffinose, Spin Tubes",about 23 pg/cell/day
same,viability at the end of cultivation,"[4]; 100 mM raffinose, Spin Tubes",about 86%
same,decrease of fucosylated glycans of mAb1 with respect to control,[4]; [10],15.9%
same,increase of Man5 of mAb1 with respect to control,[4]; [10],7.7%
same,maximum VCD (lowest of the conditions),"[4]; 100 mM raffinose, Spin Tubes, n=2",10.2±0.2 *10^6 cells/mL
same,acid isoforms and amount of aggregates with increasing raffinose concentration,"[4]; Spin Tubes, data not shown",increased
same,amount of alkaline isoforms with increasing raffinose concentration,"[4]; Spin Tubes, data not shown",decreased
same,"absolute change of unknown, galactosylated and sialylated glycoforms","[4]; raffinose supplementation, Spin Tubes",not affected
same,absolute harvest titer compared to control,"[4]; supplemented raffinose (10-100 mM), Spin Tubes",higher than the control
CCCC(=O)[O-].[Na+] [sodium butyrate],cell viability at the end of the production run,"[5]; batch culture, after 8 days of culture",less than 45%
same,cell viability,"[5]; perfusion batch culture, within 6 days of treatment",15%
"OC[C@H]1O[C@@](CO)(O[C@H]2O[C@H](CO)[C@@H](O)[C@H](O)[C@H]2O)[C@@H](O)[C@@H]1O [sucrose, α-D-glucopyranosyl-(1→2)-β-D-fructofuranoside]",maximum cell concentration (VCD),[1]; [6],18.2±1.7 *10^6 cells/mL
same,absolute harvest titer,"[1]; 1 mM sugar, 315 mOsm/kg, working day 14",about 2800 mg/L
same,absolute harvest titer,[1]; [11],~2550 mg/L
same,specific productivity,[1]; [11],about 26 pg/cell/day
same,increase of High Mannose (HM) species of mAb1 with respect to control,"[1]; 100 mM sugar, 315 mOsm/kg",14.2%
same,maximum cell concentration (VCD),"[1]; 127 mM (maximum tested) sugar, 315 mOsm/kg",9.6±3.2 *10^6 cells/mL
same,increase of High Mannose (HM) species of mAb1 with respect to control,"[1]; 127.5 mM sugar, 315 mOsm/kg",14.3%
same,cell viability,[1]; [12],~64%
same,change of fucosylated species of mAb1 with increasing sugar concentration,[1]; 315 mOsm/kg,decrease
same,"change of galactosylated, HM and non-fucosylated species of mAb1 with increasing sugar concentration",[1]; 315 mOsm/kg,increase
same,cell growth with increasing sugar concentration,[1]; 315 mOsm/kg,inhibited
same,specific productivity with increasing sugar concentration,"[1]; 315 mOsm/kg, working day 14",no change
same,increase of HM for mAb1 (overall conclusion),[1],14%
same,absolute harvest titer,[2]; [7],about 700 mg/L
same,maximum cell concentration (VCD),"[2]; 10 mM sugar, 315 mOsm/kg",11.1±1.6 *10^6 cells/mL
same,absolute harvest titer,[2]; [13],about 2100 mg/L
same,specific productivity,[2]; [13],about 21 pg/cell/day
same,increase of High Mannose (HM) species of mAb2 with respect to control,"[2]; 100 mM sugar, 315 mOsm/kg",6.0%
same,maximum VCD (lowest of the conditions),"[2]; 127.5 mM sugar, 315 mOsm/kg",6.9±1.1 *10^6 cells/mL
same,increase of High Mannose (HM) species of mAb2 with respect to control,"[2]; 127.5 mM sugar, 315 mOsm/kg",9.1%
same,specific productivity,[2]; [12],about 24 pg/cell/day
same,change of fucosylated species of mAb2 with higher sugar concentration,[2]; 315 mOsm/kg,decrease
same,"change of galactosylated, HM and non-fucosylated species of mAb2 with higher sugar concentration",[2]; 315 mOsm/kg,increase
same,increase of HM for mAb2 (overall conclusion),[2],9%
same,production of antibodies with respect to control,"[2]; sugar supplementation, 315 mOsm/kg, working day 14",decrease
